Experiments:
[1] = concentration 6 μg/ml
[2] = test system: mouse derived macrophage like cell J774.1
Experimental: With regard to arteriosclerotic athero model, mouse derived macrophage like cell J774.1 was used. PDT was performed after contacting with the second generation photosensitive substance ATX-S10 (ATX-S10 Na(II) (K.K. Hikari Chemical Lab.)) with good excretion, concentration of 6 μg/ml for 24 hours.
Irradiation of the light was performed with the light source: excimer dye laser (EDL-1, Hamamatsu Photonix Co., wavelength 670 nm, pulse width 10 ns); pulse energy density 1.2 to 9.5 mJ/cm^2 (corresponding to peak intensity […]); and repetition frequency 5 to 80 Hz. PDT effect as evaluated by a rate of cell death using MTT after performing for 24 hours.
Measurement was performed in concentration of administered photosensitive substance at 25 μg/ml and 50 μg/ml.

SMILES: C=Cc1c(C)c2cc3nc(cc4[nH]c(cc5nc(cc1[nH]2)C(C)=C5CCC(=O)NC(CC(=O)[O-])C(=O)[O-])c(CCC(=O)NC(CC(=O)[O-])C(=O)[O-])c4C)C(C)(O)/C3=C\C=NO.[Na+].[Na+].[Na+].[Na+] (stereo not shown) [ATX-S10, Iminochlorin aspartic acid derivative]
- changes of absorption (bleaching) with changing irradiation energy density [1]: depends on total irradiation energy (J/cm^2) and not on peak intensity
- PDT effect (rate of cell death) ([2]; 6 μg/ml for 24 hours, excimer dye laser 670 nm, pulse width 10 ns, high pulse energy density (high peak intensity), repetition frequency 5 to 80 Hz, MTT after 24 hours): PDT effect almost disappeared
- rate of cell death at maximum ([2]; 6 μg/ml for 24 hours, excimer dye laser 670 nm, pulse width 10 ns, low pulse energy density (low peak intensity), repetition frequency 5 to 80 Hz, MTT after 24 hours): ≤ 70%
- rate of cell death with changing irradiation energy density ([2]; 25 μg/ml and 50 μg/ml, same irradiation energy density): rate of cell death is different, if the concentration of photosensitive substance is different
